What is called melting point is the temperature of the solid-liquid transition.

SMILES strings stand for the structures.

Data set [1] has as its system PBMC. The data set is described as follows: PBMC proliferation, BrdU incorporation. It is filed as cell-based, human. The note with it: for IC50: Homo sapiens, ConA-stimulated PBMC, BrdU uptake, nM ± SD, read-out: IC50 PBMC proliferation inhibition; for fold increase in the IC50 of PBMC proliferation compared with compound 2: relative to compound 2. The procedure: Blood samples were taken from healthy donors and loaded on a Ficoll density gradient to purify the PBMC population. T cells were purified by human anti-CD3 using an autoMACS instrument (Miltenyi Biotec, Bergisch-Gladbach, Germany), according to the manufacturer's instructions. The identity of T cells was confirmed by flow cytometry, as they stained positive for CD3. Cells were stimulated with ConA (10 μg/ml), ODN2006 (0.5 μg/ml; Enzo Life Sciences), or LPS (50 μg/ml; Sigma-Aldrich, Steinheim, Germany), for 72 h in the presence of the inhibitor, and their proliferation was measured in the BrdU incorporation assay as will be later described.
(§1) Cells were depleted of fetal calf serum (FCS) for 12 hours. They were then stimulated to proliferate by addition of ConA (10 μg/ml) for PBMC from healthy individuals and for Jurkat cells, FCS (10%) for HEK293 and A375 cells, PDGF (30 ng/ml) for NIH 3T3 cells, and EGF (30 ng/ml) for MDA-MB-231, Cells (1×10^5) were cultured in 96-well plates for 3 days in the presence or absence of inhibitors at the concentrations specified in the text. Each condition was tested in duplicate wells.
(§2) Proliferation was assessed by BrdU incorporation using a colorimetric ELISA kit (Roche, Germany). Subsequent to labeling with 10 μM BrdU, DNA was denatured and the cells were incubated with anti-BrdU-POD, prior to the addition of colorimetric substrate (TMB). The reaction product was quantified by measuring absorbance at 450 nm in an ELISA plate reader (ELx800 BIO-TEK Instruments Inc.).
(§3) Since we were not prejudiced towards any specific protein kinase, we used a biological assay for T cell proliferation. We tested our libraries for inhibition of proliferation of PBMC and Jurkat cells (Table 3). Cell proliferation was measured by BrdU uptake. […] PBMC cells were stimulated by a non-specific T cell mitogen, Concanavalin A (ConA). All of the compounds that were tested inhibited proliferation at micromolar or sub-micromolar concentrations.
A general note: Uptake of a labelled nucleoside into DNA is a usual measure of proliferation.

Data set [2] has as its system Jurkat cells. The data set is described as follows: Jurkat cell proliferation, BrdU incorporation. It is filed as cell-based, human. Particulars: for IC50: Homo sapiens, Jurkat, BrdU uptake, nM ± SD, read-out: IC50 Jurkat cells proliferation inhibition; for fold increase in the IC50 of Jurkat cell proliferation compared with compound 2: relative to compound 2. The procedure: as §1, §2, §3

`COc1cc(-c2nc(Nc3ccccc3)c3ccccc3n2)cc(OC)c1OC` [Compound 1, N-phenyl-2-(3,4,5-trimethoxyphenyl)quinazolin-4-amine] displayed a melting point above 250 °C. In addition, in data set [1], the IC50 stood at 280 ± 0.04 nM and the “fold increase in the IC50 of PBMC proliferation compared with compound 2” value is recorded as 3 fold. In data set [2], the IC50 is 380 ± 0.18 nM and the “fold increase in the IC50 of Jurkat cell proliferation compared with compound 2” value is 10 fold.
With `COc1cc(-c2nc(Nc3ccc(C)cc3C)c3ccccc3n2)cc(OC)c1OC` [Compound 3, N-(2,4-dimethylphenyl)-2-(3,4,5-trimethoxyphenyl)quinazolin-4-amine], the melting point was above 250 °C. Further, in data set [1], the IC50 stood at 750 ± 0.05 nM and the “fold increase in the IC50 of PBMC proliferation compared with compound 2” value turned out to be 10 fold. Besides, in data set [2], the IC50 was determined as 2600 ± 3.39 nM and the “fold increase in the IC50 of Jurkat cell proliferation compared with compound 2” value is reported as 10 fold.
As for `COc1cc(-c2nc(Nc3ccc(O)cc3)c3ccccc3n2)cc(OC)c1OC` [Compound 4, 4-(2-(3,4,5-trimethoxyphenyl)quinazolin-4-ylamino)phenol], the melting point is above 250 °C. For the same compound, the IC50 in data set [1] is 300 ± 0.14 nM. For the same compound, in data set [2], the IC50 is 230 ± 0.04 nM.
Taken in the same sequence, the figures for `COc1ccc(Nc2nc(-c3cc(OC)c(OC)c(OC)c3)nc3ccccc23)cc1` [Compound 5, N-(4-methoxyphenyl)-2-(3,4,5-trimethoxyphenyl)quinazolin-4-amine] were above 250 °C, 500 ± 0.14 nM and 1100 ± 0.14 nM.
As to `CCCCCCCCOc1ccc(Nc2nc(-c3cc(OC)c(OC)c(OC)c3)nc3ccccc23)cc1` [Compound 6, N-(4-(octyloxy)phenyl)-2-(3,4,5-trimethoxyphenyl)quinazolin-4-amine], the IC50 in data set [1] was 2400 ± 2.26 nM; in data set [2] it was 850 ± 0.07 nM.
In the case of `COc1cc(-c2nc(Nc3ccc(OC(F)(F)F)cc3)c3ccccc3n2)cc(OC)c1OC` [Compound 7, N-(4-(trifluoromethoxy)phenyl)-2-(3,4,5-trimethoxyphenyl) quinazolin-4-amine], the melting point was above 250 °C. Besides, in data set [1], the IC50 came out at 400 nM and the “fold increase in the IC50 of PBMC proliferation compared with compound 2” value amounted to 5 fold. Besides, in data set [2], the IC50 came to 180 ± 0.11 nM and the “fold increase in the IC50 of Jurkat cell proliferation compared with compound 2” value was 6 fold.
`COc1cc(-c2nc(Nc3ccc(Cl)cc3)c3ccccc3n2)cc(OC)c1OC` [Compound 8, N-(4-chlorophenyl)-2-(3,4,5-trimethoxyphenyl)quinazolin-4-amine] showed a melting point above 250 °C. In data set [1], the IC50 was determined as 300 ± 0.05 nM. Moreover, in data set [2], the IC50 was determined as 530 ± 0.32 nM.
Consider `COc1cc(-c2nc(Nc3ccccc3CO)c3ccccc3n2)cc(OC)c1OC` [Compound 9, (2-(2-(3,4,5-trimethoxyphenyl)quinazolin-4-ylamino)phenyl)methanol], for which the melting point was above 250 °C. Moreover, the IC50 in data set [1] is 850 ± 0.07 nM. In data set [2], the IC50 worked out at 580 ± 0.18 nM.
Taken in the same sequence, the figures for `COc1cc(-c2nc(NCc3ccccc3)c3ccccc3n2)cc(OC)c1OC` [Compound 10, N-benzyl-2-(3,4,5-trimethoxyphenyl)quinazolin-4-amine] were above 250 °C, 3250 ± 2.47 nM and 600 ± 0.14 nM.
Regarding `COc1cc(-c2nc(NCc3ccc(N)cc3)c3ccccc3n2)cc(OC)c1OC` [Compound 11, N-(4-aminobenzyl)-2-(3,4,5-trimethoxyphenyl)quinazolin-4-amine], the melting point is above 250 °C. Also, the IC50 in data set [1] was determined as 380 ± 0.04 nM. Also, the IC50 in data set [2] came out at 480 ± 0.18 nM.
In the case of `COc1cc(-c2nc(NCc3ccc(F)c(F)c3)c3ccccc3n2)cc(OC)c1OC` [Compound 12, N-(3,4-difluorobenzyl)-2-(3,4,5-trimethoxyphenyl)quinazolin-4-amine], the melting point was above 250 °C. Moreover, in data set [1], the IC50 is 200 nM. Further, the IC50 in data set [2] is 730 ± 0.39 nM.
`COc1cc(-c2nc(NCc3ccc(Cl)c(Cl)c3)c3ccccc3n2)cc(OC)c1OC` [Compound 13, N-(3,4-dichlorobenzyl)-2-(3,4,5-trimethoxyphenyl)quinazolin-4-amine]: the IC50 in data set [1] was determined as 300 ± 0.14 nM; in data set [2], 730 ± 0.39 nM.
Consider `COc1ccc(CNc2nc(-c3cc(OC)c(OC)c(OC)c3)nc3ccccc23)cc1` [Compound 14, N-(4-methoxybenzyl)-2-(3,4,5-trimethoxyphenyl)quinazolin-4-amine], for which the IC50 came out at 500 ± 0.14 nM in data set [1] and 1100 ± 0.14 nM in data set [2].
For the compound `COc1cc(-c2nc(Nc3ccc4cn[nH]c4c3)c3ccccc3n2)cc(OC)c1OC` [Compound 15, N-(1H-indazol-6-yl)-2-(3,4,5-trimethoxyphenyl) quinazolin-4-amine], the melting point was above 250 °C. The IC50 in data set [1] amounted to 450 ± 0.07 nM. For the same compound, in data set [2], the IC50 amounted to 600 ± 0.14 nM.
Take `COc1cc(-c2nc(Nc3ccc4[nH]ncc4c3)c3ccccc3n2)cc(OC)c1OC` [Compound 16, N-(1H-indazol-5-yl)-2-(3,4,5-trimethoxyphenyl)quinazolin-4-amine]: the melting point is above 250 °C. The IC50 in data set [1] was 600 ± 0.28 nM. In addition, in data set [2], the IC50 amounted to 700 ± 0.35 nM.
In the case of `COc1cc(-c2nc(NCCc3c[nH]c4ccccc34)c3ccccc3n2)cc(OC)c1OC` [Compound 17, N-(2-(1H-indol-3-yl)ethyl)-2-(3,4,5-trimethoxyphenyl)quinazolin-4-amine], the melting point is above 250 °C. In addition, the IC50 in data set [1] stood at 750 ± 0.21 nM. In addition, in data set [2], the IC50 stood at 700 ± 0.35 nM.
`COc1cc(-c2nc(Nc3ccc4c(c3)OCO4)c3ccccc3n2)cc(OC)c1OC` [Compound 18, N-(benzo[d][1,3]dioxol-5-yl)-2-(3,4,5-trimethoxyphenyl) quinazolin-4-amine] registered a melting point above 250 °C. Also, the IC50 in data set [1] is 380 ± 0.04 nM. Moreover, the IC50 in data set [2] is 600 nM.
With `COc1cc(-c2nc(Nc3ccc4nc[nH]c4c3)c3ccccc3n2)cc(OC)c1OC` [Compound 19, N-(3H-benzoimidazol-5-yl)-2-(3,4,5-trimethoxyphenyl)quinazolin-4-amine], the melting point is above 250 °C. Further, in data set [1], the IC50 is 430 ± 0.11 nM. Besides, the IC50 in data set [2] turned out to be 1500 ± 0.71 nM.
The compound `Oc1cc(-c2nc(Nc3ccccc3)c3ccccc3n2)cc(O)c1O` [Compound 20, 5-(4-(phenylamino)quinazolin-2-yl)benzene-1,2,3-triol] had a melting point above 250 °C. Moreover, in data set [1], the IC50 amounted to 650 ± 0.49 nM. Besides, the IC50 in data set [2] amounted to 5500 ± 3.5 nM.
`Cc1ccc(Nc2nc(-c3cc(O)c(O)c(O)c3)nc3ccccc23)c(C)c1` [Compound 22, 5-(4-(2,4-dimethylphenylamino)quinazolin-2-yl)benzene-1,2,3-triol] yielded a melting point above 250 °C. For the same compound, the IC50 in data set [1] stood at 730 ± 0.04 nM. For the same compound, the IC50 in data set [2] came out at 3700 ± 4.67 nM.
As to `Oc1ccc(Nc2nc(-c3cc(O)c(O)c(O)c3)nc3ccccc23)cc1` [Compound 23, 5-(4-(4-hydroxyphenylamino)quinazolin-2-yl)benzene-1,2,3-triol], the IC50 stood at 970 ± 0.84 nM in data set [1] and 1120 ± 0.28 nM in data set [2].
`COc1ccc(Nc2nc(-c3cc(O)c(O)c(O)c3)nc3ccccc23)cc1` [Compound 24, 5-(4-(4-methoxyphenylamino)quinazolin-2-yl)benzene-1,2,3-triol] returned a melting point above 250 °C. Further, the IC50 in data set [1] is 500 ± 0.14 nM. In addition, the IC50 in data set [2] stood at 550 ± 0.21 nM.
With `CCCCCCCCOc1ccc(Nc2nc(-c3cc(O)c(O)c(O)c3)nc3ccccc23)cc1` [Compound 25, 5-(4-(4-(octyloxy)phenylamino)quinazolin-2-yl)benzene-1,2,3-triol], the melting point was above 250 °C. Moreover, in data set [1], the IC50 came out at 4530 ± 0.31 nM. In addition, the IC50 in data set [2] was 4250 ± 1.3 nM.
The matching figures for `Oc1cc(-c2nc(Nc3ccc(OC(F)(F)F)cc3)c3ccccc3n2)cc(O)c1O` [Compound 26, 5-(4-(4-(trifluoromethoxy)phenylamino)quinazolin-2-yl)benzene-1,2,3-triol]: above 250 °C, 2780 ± 0.26 nM and 3240 ± 0.31 nM.
`Oc1cc(-c2nc(Nc3ccc(Cl)cc3)c3ccccc3n2)cc(O)c1O` [Compound 27, 5-(4-(4-chlorophenylamino)quinazolin-2-yl)benzene-1,2,3-triol] gave a melting point above 250 °C. Moreover, in data set [1], the IC50 was 550 ± 0.21 nM. For the same compound, in data set [2], the IC50 came to 4250 ± 5.3 nM.
On to `Oc1cc(-c2nc(Nc3ccc4cn[nH]c4c3)c3ccccc3n2)cc(O)c1O` [Compound 34, 5-(4-(1H-indazol-6-ylamino)quinazolin-2-yl)benzene-1,2,3-triol], for which the IC50 in data set [1] was determined as 500 ± 0.14 nM; in data set [2] it was 690 ± 0.3 nM.

Values taken from patent publication US8759363B2, “Quinazoline-based T cell proliferation inhibitors” (Yissum Research Development Company of the Hebrew …, priority 2010, dated 2014).
